According to publication PMC4089482, “Bacterial periplasmic sialic acid-binding proteins exhibit a conserved binding site” (Acta Crystallographica Section D: Biological Crystallography, 2014):
Entries after “also recorded” stand apart in the source; their conditions may differ. Where two headings read alike, the source gives them in different places.

Key:
V. cholerae = assay: ELISA (3F11) of Neu5Ac incorporation onto surface LOS; format: cell-based, Vibrio cholerae
Protocol: V. cholerae was grown on sBHI agar plates containing 100 µM Neu5Ac and LB. Cells were harvested and resuspended in PBS (20 mM Na2HPO4, 150 mM NaCl pH 7.0) at an OD600 of 0.2. The wells of Costar 96-well EIA/RIA plates (Corning) were filled with 100 µl of the bacterial suspension and six wells were used for each experiment. The plates were dried at 40°C overnight. The plates were washed four times with buffer C (72 mM sodium acetate, 165 mM sodium chloride, 0.55% Tween 20) using an ELx50 Strip Washer (BioTek Instruments, Winooski, Vermont, USA). A neuraminidase digest was performed on three wells by adding 100 µl 0.01 U ml^−1 neuraminidase (Roche Diagnostics GmbH, Mannheim, Germany) diluted in neuraminidase buffer (50 mM sodium acetate, 154 mM NaCl, 9 mM CaCl2, 25 µg ml^−1 human serum albumin pH 5.6) and the other three wells were treated with just the buffer. The plate was incubated for 6 h at 37°C and the wells were then washed. The monoclonal antibody 3F11, diluted 1/200 in buffer C, was added to each well. The plates were incubated at 37°C overnight (approximately 18 h) followed by a wash. The secondary antibody, phosphatase-labelled goat anti-mouse IgM (Kirkegaard and Perry Laboratories, Gaithersburg, Maryland, USA), diluted 1/2000 in buffer C, was added. […] When a yellow colour had developed, the absorbance at 405 nm was read using a Microplate Autoreader EL311 (BioTek Instruments).

Pm-SiaP = Pm-SiaP (Pasteurella multocida, UniProt Q9CKB5); assay: ITC binding of sialic acids to Pm-SiaP
Protocol: (§1) ITC measurements were performed using a MicroCal ITC system (GE Healthcare). The reaction buffer for all of the experiments was 20 mM HEPES pH 8.0, 10 mM NaCl. All titrations were carried out at 25°C. The protein concentration was determined using the Bio-Rad Bradford reagent. The concentrations of SiaP and Neu5Ac/Neu5Gc were varied in the different titrations and each binding experiment was repeated three times. The nonspecific heat released by the dilution of both the sugars and the protein was calculated by averaging the heat liberated during the last 3–5 injections after saturation. This value was then subtracted from the raw heat released during each injection. To derive the stoichiometric values, the data sets were analyzed using a single-site binding model from the Origin ITC analysis software (MicroCal). In this analysis, the values for the stoichiometry, the change in enthalpy (ΔH) and the affinity were fitted using nonlinear least-squares analysis. To derive the values for the affinity, ΔS and ΔH, data sets were globally analyzed using the single-site binding model in SEDPHAT (Vistica et al., 2004[▶]; Dam & Schuck, 2005[▶]).

Vc-SiaP = biological target: T1, Vc-SiaP (Vibrio cholerae serotype O1, UniProt Q9KR64); assay: ITC binding of sialic acids to Vc-SiaP; settings: 25°C
T1 construct: PCR-amplified using the forward primer 5′-[…]-3′; made in house; host or cells: Escherichia coli BL21 (DE3)
T1 sequence (Q9KR64 23-321): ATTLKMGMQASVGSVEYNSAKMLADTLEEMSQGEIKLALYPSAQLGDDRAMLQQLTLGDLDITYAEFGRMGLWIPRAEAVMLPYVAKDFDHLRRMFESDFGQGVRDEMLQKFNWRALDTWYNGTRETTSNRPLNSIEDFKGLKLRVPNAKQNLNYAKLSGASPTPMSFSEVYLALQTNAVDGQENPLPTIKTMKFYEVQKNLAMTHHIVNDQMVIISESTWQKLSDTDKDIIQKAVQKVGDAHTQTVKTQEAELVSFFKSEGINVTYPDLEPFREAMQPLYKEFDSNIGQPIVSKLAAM
Protocol: as §1

Hi-SiaP N187Q mutant = biological target: T2, Hi-SiaP N187Q mutant (Haemophilus influenzae, UniProt P44542, N210Q); assay: ITC binding of Neu5Ac to Hi-SiaP N187Q; settings: 25°C
T2 construct: made in house
Protocol: as §1

Fn-SiaP = Fn-SiaP (Fusobacterium nucleatum subsp. nucleatum, UniProt Q8RDN9); assay: ITC binding of sialic acids to Fn-SiaP; settings: 25°C
Protocol: as §1

Hi-SiaP T64K mutant = biological target: T3, Hi-SiaP T64K mutant (Haemophilus influenzae, UniProt P44542, T87K); assay: ITC binding of Neu5Ac to Hi-SiaP T64K
T3 construct: made in house
Protocol: as §1

Hi-SiaP E67A mutant = biological target: T4, Hi-SiaP E67A mutant (Haemophilus influenzae, UniProt P44542, E90A); assay: ITC binding of Neu5Ac to Hi-SiaP E67A
T4 construct: made in house
Protocol: as §1

Hi-SiaP wild type [1] = biological target: T5, Hi-SiaP wild type (Haemophilus influenzae, UniProt P44542); assay: ITC binding of Neu5Ac to wild-type Hi-SiaP
T5 construct: made in house
Protocol: as §1

Hi-SiaP R127K mutant = biological target: T6, Hi-SiaP R127K mutant (Haemophilus influenzae, UniProt P44542, R150K); assay: ITC binding of Neu5Ac to Hi-SiaP R127K; settings: 25°C
T6 construct: made in house
Protocol: as §1

Hi-SiaP wild type [2] = biological target: T5, Hi-SiaP wild type; parameters: method as in Johnston et al. (2008); settings: taken for comparison; ref Johnston et al. (2008); cited from earlier work
Hi-SiaP E186Q mutant = biological target: T7, Hi-SiaP E186Q mutant (Haemophilus influenzae, UniProt P44542, E209Q); assay: ITC binding of Neu5Ac to Hi-SiaP E186Q
T7 construct: made in house
Protocol: as §1

Hi-SiaP H209A mutant = biological target: T8, Hi-SiaP H209A mutant (Haemophilus influenzae, UniProt P44542, H232A); assay: ITC binding of Neu5Ac to Hi-SiaP H209A; settings: 25°C
T8 construct: made in house
Protocol: as §1

Hi-SiaP T64R mutant = biological target: T9, Hi-SiaP T64R mutant (Haemophilus influenzae, UniProt P44542, T87R); assay: ITC binding of Neu5Ac to Hi-SiaP T64R; settings: 25°C
T9 construct: made in house
Protocol: as §1

[3] = tested on: V. cholerae O1 biovar eltor strain N16961; assay: Growth-curve experiment in M9 minimal medium with different sugars; format: cell-based, Vibrio cholerae; settings: M9 minimal medium supplemented with sugar (5 mg ml^−1; all at 5 mM), 37°C
Protocol: V. cholerae O1 biovar eltor strain N16961 was initially grown on LB agar plates. Subsequently, 3 ml M9 minimal medium supplemented with different sugars (5 mg ml^−1) was inoculated with bacteria at an OD600 of 0.07. These cultures were incubated in a 37°C shaker at 225 rev min^−1. Optical densities at A 600 were measured at various time points using a Spectronic GENESYS 20 Visible Spectrophotometer to observe the growth pattern of V. cholerae in different compounds. The different sugars used were Neu5Ac, Neu5Gc, fetuin (a glycoprotein of foetal serum that contains different sugars and sialic acid; Spiro, 1960[▶]), asialofetuin, galactose, glycerol, D-lactic acid, succinate, sucrose, DL-malic acid and fructose, all at 5 mM concentration. Based on the readings, a graph of OD600 was plotted.

[4] = ITC, 20 mM HEPES pH 8.0, 10 mM NaCl, 25°C

CC(=O)NC1C(O)CC(O)(C(=O)O)OC1C(O)C(O)CO (stereo not drawn) [Neu5Ac]
3F11 binding of V. cholerae grown with Neu5Ac (ELISA) (V. cholerae; 100 µM Neu5Ac, binding did occur after neuraminidase: sialic acid incorporated into surface LOS): did not bind 3F11
difference in absorbance before and after adding neuraminidase (level of Neu5Ac incorporation) (V. cholerae; 3F11 ELISA, Figure S4, very little difference in LB media control): significant difference
H (change in enthalpy, ΔH) (Pm-SiaP; [4]): 6560 calmol^1
T S (entropic component) (Pm-SiaP; [4]): 3948.2 calmol^1
Kd (Pm-SiaP; ITC, 20 mM HEPES pH 8.0, 10 mM NaCl, 25°C, read-out: K d): 19.7 nM
Kd (Pm-SiaP; fit box of the isotherm in Figure 4, single-site model, read-out: K (association constant) (converted)): 27 nM
H (change in enthalpy, ΔH) (Vc-SiaP; 20 mM HEPES pH 8.0, 10 mM NaCl): 7175 calmol^1
Kd (Vc-SiaP; 20 mM HEPES pH 8.0, 10 mM NaCl): 306 nM
T S (entropic component) (Vc-SiaP; 20 mM HEPES pH 8.0, 10 mM NaCl): 508.9 calmol^1
H (change in enthalpy, ΔH) (Hi-SiaP N187Q mutant): 7939 calmol^1
T S (entropic component) (Hi-SiaP N187Q mutant): 40.826 calmol^1
H (change in enthalpy, ΔH) (Fn-SiaP; 20 mM HEPES pH 8.0, 10 mM NaCl): 9165 calmol^1
Kd (Fn-SiaP; 20 mM HEPES pH 8.0, 10 mM NaCl): 45.5 nM
T S (entropic component) (Fn-SiaP; 20 mM HEPES pH 8.0, 10 mM NaCl): 849.3 calmol^1
affinity for Neu5Ac in words (Hi-SiaP T64K mutant): micromolar affinity
H (change in enthalpy, ΔH) (Hi-SiaP T64K mutant; 25°C): 8743 calmol^1
T S (entropic component) (Hi-SiaP T64K mutant; 25°C): 294.72 calmol^1
affinity for Neu5Ac in words (Hi-SiaP E67A mutant): micromolar affinity
H (change in enthalpy, ΔH) (Hi-SiaP E67A mutant; 25°C): 249.5 calmol^1
T S (entropic component) (Hi-SiaP E67A mutant; 25°C): 6168.6 calmol^1
affinity for Neu5Ac in words (Hi-SiaP wild type [1]): nanomolar affinity
Kd (Hi-SiaP wild type [1]; 20 mM HEPES pH 8.0, 10 mM NaCl, 25°C): 16.6 nM
H (change in enthalpy, ΔH) (Hi-SiaP wild type [1]; 25°C): 17500 calmol^1
T S (entropic component) (Hi-SiaP wild type [1]; 25°C): 6883 calmol^1
K d / binding to Neu5Ac (Hi-SiaP R127K mutant): did not bind to Neu5Ac with measurable affinity; also recorded: No measurable binding
H (change in enthalpy, ΔH) (Hi-SiaP wild type [2]): 15300 calmol^1
Kd (Hi-SiaP wild type [2]): 28 nM
T S (entropic component) (Hi-SiaP wild type [2]): 5000 calmol^1
affinity for Neu5Ac in words (Hi-SiaP E186Q mutant): micromolar affinity
H (change in enthalpy, ΔH) (Hi-SiaP E186Q mutant; 25°C): 6827 calmol^1
T S (entropic component) (Hi-SiaP E186Q mutant; 25°C): 1016 calmol^1
H (change in enthalpy, ΔH) (Hi-SiaP H209A mutant): 13360 calmol^1
T S (entropic component) (Hi-SiaP H209A mutant): 4917 calmol^1
K d / binding to Neu5Ac (Hi-SiaP T64R mutant): No measurable binding
growth of V. cholerae in the presence of the compound (OD600) [3]: grows

O=C[C@H](O)[C@@H](O)[C@@H](O)[C@H](O)CO [galactose]
growth of V. cholerae in the presence of the compound (OD600) [3]: No growth

CC(=O)N[C@H]1[C@H]([C@H](O)[C@H](O)CO)OC(C(=O)O)=C[C@@H]1O [Neu5Ac2en, N-acetyl-2,3-dehydro-2-deoxyneuraminic acid]
interaction measured by ITC (Pm-SiaP; ITC, 25°C): no measurable interaction
interaction measured by ITC (Vc-SiaP): no measurable interaction
interaction measured by ITC (Fn-SiaP): no measurable interaction

O=C(O)CCC(=O)O [succinate]
growth of V. cholerae in the presence of the compound (OD600) [3]: Little growth

B1: fetuin: a glycoprotein of foetal serum that contains different sugars and sialic acid (protein, UniProt P12763 19-359, looked up)
Alpha-2-HS-glycoprotein: IPLDPVAGYKEPACDDPDTEQAALAAVDYINKHLPRGYKHTLNQIDSVKVWPRRPTGEVYDIEIDTLETTCHVLDPTPLANCSVRQQTQHAVEGDCDIHVLKQDGQFSVLFTKCDSSPDSAEDVRKLCPDCPLLAPLNDSRVVHAVEVALATFNAESNGSYLQLVEISRAQFVPLPVSVSVEFAVAATDCIAKEVVDPTKCNLLAEKQYGFCKGSVIQKALGGEDVRVTCTLFQTQPVIPQPQPDGAEAEAPSAVPDAAGPTPSAAGPPVASVVVGPSVVAVPLPLHRAHYDLRHTFSGVASVESSSGEAFHVGKTPIVGQPSIPGGPVRLCPGRIRYFKI
growth of V. cholerae in the presence of the compound (OD600) [3]: grows

B2: asialofetunin: asialofetuin, used as a carbon source in the growth experiment (protein, UniProt P12763 19-359, looked up)
Alpha-2-HS-glycoprotein: IPLDPVAGYKEPACDDPDTEQAALAAVDYINKHLPRGYKHTLNQIDSVKVWPRRPTGEVYDIEIDTLETTCHVLDPTPLANCSVRQQTQHAVEGDCDIHVLKQDGQFSVLFTKCDSSPDSAEDVRKLCPDCPLLAPLNDSRVVHAVEVALATFNAESNGSYLQLVEISRAQFVPLPVSVSVEFAVAATDCIAKEVVDPTKCNLLAEKQYGFCKGSVIQKALGGEDVRVTCTLFQTQPVIPQPQPDGAEAEAPSAVPDAAGPTPSAAGPPVASVVVGPSVVAVPLPLHRAHYDLRHTFSGVASVESSSGEAFHVGKTPIVGQPSIPGGPVRLCPGRIRYFKI
modifications: desialylated
notes: asialofetuin, used as a carbon source in the growth experiment
growth of V. cholerae in the presence of the compound (OD600) [3]: No growth
